Laboratory results: patent US20250236611A1, “PYRAZOLE COMPOUNDS AND USES THEREOF” (ALCON INC., priority 2021, published 2025)

Key:
Assay type in all cases: biochemical
Settings in all cases: 10 nM JAK enzyme, 800 nM Abl peptide, room temperature 75 min
TYK2 = TYK2 (Homo sapiens, UniProt P29597); assay: JAK assay (KINASE-GLO luminescent kinase assay), TYK2
Description: All compounds were initially prepared as 10 mM stocks in anhydrous dimethylsulfoxide (DMSO). […] Test compounds were then serially diluted 1:5 in DMSO for an 11-point concentration response and further diluted in the assay buffer bringing all compound concentrations to a final range of 100 μM to 10 pM in 2.5% DMSO. The assay was performed in white 96-well, flat-bottom, half-area, non-binding assay plate (Corning #3642) in assay buffer consisting of 20 mM HEPES (pH 7.5), 10 mM MgCl2*6H2O, 100 μM sodium orthovanadate, 0.05% CHAPS and 0.1% bovine serum albumin. A 10 μL aliquot of compound from each well of the intermediate dilution plate and 20 μL of a 2×JAK substrate/enzyme solution containing acceptor substrate (800 nM Abl peptide), JAK enzyme (10 nM JAK1, JAK2, JAK3, or TYK2), and 1,4-Dithiothreitol (DTT, 2 μM) were added to all wells. The reaction was initiated by the addition of 10 μL of 4× stock solution ATP (2 μM). Reactions were thoroughly mixed manually, covered and allowed to incubate at room temperature for 75 min. Protein kinase activity was quantitated using Promega's KINASE-GLO™ luminescent Kinase Assay Kit according to the manufacturer's directions. ATP concentrations remaining in Test wells following the termination of the enzymatic reaction were compared against control wells containing equivalent amounts of DMSO containing no inhibitor (CTRL). […] Percent of Control (POC) values were determined for each concentration of compound tested according to the equation:
(§1) [formula] • IC50 values were calculated using the following 4-parameter logistic curve-fitting algorithm:
(§2) [formula] • IC50 values were converted to Ki values using the Cheng-Prusoff Equation: […]

JAK2 = JAK2 (Homo sapiens, UniProt O60674); assay: JAK assay (KINASE-GLO luminescent kinase assay), JAK2
JAK2, sequence (O60674 whole entry): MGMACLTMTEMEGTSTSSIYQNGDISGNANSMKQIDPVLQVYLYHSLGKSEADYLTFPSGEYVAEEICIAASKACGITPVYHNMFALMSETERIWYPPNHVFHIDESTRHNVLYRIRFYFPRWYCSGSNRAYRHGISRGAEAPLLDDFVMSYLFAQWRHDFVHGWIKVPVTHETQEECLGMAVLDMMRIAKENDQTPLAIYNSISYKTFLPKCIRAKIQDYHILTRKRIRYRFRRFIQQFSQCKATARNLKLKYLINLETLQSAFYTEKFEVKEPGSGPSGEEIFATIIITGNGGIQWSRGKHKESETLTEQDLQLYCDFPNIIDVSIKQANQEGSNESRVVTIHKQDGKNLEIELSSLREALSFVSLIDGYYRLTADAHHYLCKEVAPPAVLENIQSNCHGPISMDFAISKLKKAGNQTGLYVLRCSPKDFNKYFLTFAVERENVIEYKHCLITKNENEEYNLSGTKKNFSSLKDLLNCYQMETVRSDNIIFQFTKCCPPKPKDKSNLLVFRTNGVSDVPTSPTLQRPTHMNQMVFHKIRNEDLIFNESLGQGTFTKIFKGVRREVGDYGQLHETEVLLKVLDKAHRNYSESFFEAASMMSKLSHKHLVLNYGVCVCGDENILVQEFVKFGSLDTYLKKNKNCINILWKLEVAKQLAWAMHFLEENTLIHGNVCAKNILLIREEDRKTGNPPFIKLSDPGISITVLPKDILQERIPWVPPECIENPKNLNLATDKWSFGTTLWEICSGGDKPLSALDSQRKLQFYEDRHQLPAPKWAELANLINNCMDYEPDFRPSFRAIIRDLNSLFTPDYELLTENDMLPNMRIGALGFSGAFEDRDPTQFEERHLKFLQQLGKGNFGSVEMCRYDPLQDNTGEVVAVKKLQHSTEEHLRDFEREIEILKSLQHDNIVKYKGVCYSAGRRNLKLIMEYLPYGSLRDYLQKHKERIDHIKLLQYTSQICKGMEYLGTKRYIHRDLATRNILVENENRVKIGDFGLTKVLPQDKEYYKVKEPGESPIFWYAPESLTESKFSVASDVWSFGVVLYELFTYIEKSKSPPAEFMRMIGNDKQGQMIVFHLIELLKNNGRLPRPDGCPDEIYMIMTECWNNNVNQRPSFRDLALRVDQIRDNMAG
Description: (§3) All compounds were initially prepared as 10 mM stocks in anhydrous dimethylsulfoxide (DMSO). A 20 μL aliquot of the 10 mM solutions was transferred to individual wells in column 1 of a 96-well polypropylene microtiter plate (Corning #3363) and diluted with DMSO to give a final compound concentration of 4 mM. Test compounds were then serially diluted 1:5 in DMSO for an 11-point concentration response and further diluted in the assay buffer bringing all compound concentrations to a final range of 100 μM to 10 pM in 2.5% DMSO. The assay was performed in white 96-well, flat-bottom, half-area, non-binding assay plate (Corning #3642) in assay buffer consisting of 20 mM HEPES (pH 7.5), 10 mM MgCl2*6H2O, 100 μM sodium orthovanadate, 0.05% CHAPS and 0.1% bovine serum albumin. A 10 μL aliquot of compound from each well of the intermediate dilution plate and 20 μL of a 2×JAK substrate/enzyme solution containing acceptor substrate (800 nM Abl peptide), JAK enzyme (10 nM JAK1, JAK2, JAK3, or TYK2), and 1,4-Dithiothreitol (DTT, 2 μM) were added to all wells. The reaction was initiated by the addition of 10 μL of 4× stock solution ATP (2 μM). Reactions were thoroughly mixed manually, covered and allowed to incubate at room temperature for 75 min. Protein kinase activity was quantitated using Promega's KINASE-GLO™ luminescent Kinase Assay Kit according to the manufacturer's directions. ATP concentrations remaining in Test wells following the termination of the enzymatic reaction were compared against control wells containing equivalent amounts of DMSO containing no inhibitor (CTRL). […] Percent of Control (POC) values were determined for each concentration of compound tested according to the equation:
as §1, §2

JAK1 = JAK1 (Homo sapiens, UniProt P23458); assay: JAK assay (KINASE-GLO luminescent kinase assay), JAK1
JAK1, sequence (P23458 whole entry): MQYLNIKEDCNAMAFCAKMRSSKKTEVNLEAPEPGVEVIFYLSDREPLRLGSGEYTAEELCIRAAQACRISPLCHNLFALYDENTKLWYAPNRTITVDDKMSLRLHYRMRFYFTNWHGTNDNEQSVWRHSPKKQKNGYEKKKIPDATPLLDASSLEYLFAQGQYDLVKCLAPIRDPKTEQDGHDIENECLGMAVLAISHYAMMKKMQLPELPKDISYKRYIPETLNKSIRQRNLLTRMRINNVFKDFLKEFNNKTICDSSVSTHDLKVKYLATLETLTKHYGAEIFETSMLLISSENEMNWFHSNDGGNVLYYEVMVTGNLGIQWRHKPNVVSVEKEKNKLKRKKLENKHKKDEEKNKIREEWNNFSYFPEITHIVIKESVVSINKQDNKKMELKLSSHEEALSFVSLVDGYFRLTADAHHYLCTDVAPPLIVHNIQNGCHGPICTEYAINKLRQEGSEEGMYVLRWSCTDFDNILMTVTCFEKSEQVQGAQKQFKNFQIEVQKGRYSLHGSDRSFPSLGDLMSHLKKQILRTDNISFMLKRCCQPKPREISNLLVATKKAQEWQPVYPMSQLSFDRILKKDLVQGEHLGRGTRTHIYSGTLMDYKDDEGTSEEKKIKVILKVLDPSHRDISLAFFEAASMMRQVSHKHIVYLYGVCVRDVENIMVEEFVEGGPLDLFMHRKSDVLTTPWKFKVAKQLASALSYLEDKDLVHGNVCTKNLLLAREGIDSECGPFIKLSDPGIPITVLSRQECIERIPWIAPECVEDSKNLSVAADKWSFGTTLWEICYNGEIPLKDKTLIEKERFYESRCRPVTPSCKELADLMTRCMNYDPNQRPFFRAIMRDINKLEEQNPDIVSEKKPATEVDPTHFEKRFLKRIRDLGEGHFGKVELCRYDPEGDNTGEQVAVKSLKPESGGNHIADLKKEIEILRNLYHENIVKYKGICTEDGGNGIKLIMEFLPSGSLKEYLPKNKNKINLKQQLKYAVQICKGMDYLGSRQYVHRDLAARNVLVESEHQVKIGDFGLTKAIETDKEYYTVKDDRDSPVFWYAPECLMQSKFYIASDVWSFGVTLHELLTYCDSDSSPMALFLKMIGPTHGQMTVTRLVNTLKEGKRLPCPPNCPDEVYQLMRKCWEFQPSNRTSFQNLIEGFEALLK
Description: as §3, §1, §2

JAK3 = molecular target: T1, JAK3 (Homo sapiens, UniProt P52333); assay: JAK assay (KINASE-GLO luminescent kinase assay), JAK3
T1 sequence (P52333 1-1124): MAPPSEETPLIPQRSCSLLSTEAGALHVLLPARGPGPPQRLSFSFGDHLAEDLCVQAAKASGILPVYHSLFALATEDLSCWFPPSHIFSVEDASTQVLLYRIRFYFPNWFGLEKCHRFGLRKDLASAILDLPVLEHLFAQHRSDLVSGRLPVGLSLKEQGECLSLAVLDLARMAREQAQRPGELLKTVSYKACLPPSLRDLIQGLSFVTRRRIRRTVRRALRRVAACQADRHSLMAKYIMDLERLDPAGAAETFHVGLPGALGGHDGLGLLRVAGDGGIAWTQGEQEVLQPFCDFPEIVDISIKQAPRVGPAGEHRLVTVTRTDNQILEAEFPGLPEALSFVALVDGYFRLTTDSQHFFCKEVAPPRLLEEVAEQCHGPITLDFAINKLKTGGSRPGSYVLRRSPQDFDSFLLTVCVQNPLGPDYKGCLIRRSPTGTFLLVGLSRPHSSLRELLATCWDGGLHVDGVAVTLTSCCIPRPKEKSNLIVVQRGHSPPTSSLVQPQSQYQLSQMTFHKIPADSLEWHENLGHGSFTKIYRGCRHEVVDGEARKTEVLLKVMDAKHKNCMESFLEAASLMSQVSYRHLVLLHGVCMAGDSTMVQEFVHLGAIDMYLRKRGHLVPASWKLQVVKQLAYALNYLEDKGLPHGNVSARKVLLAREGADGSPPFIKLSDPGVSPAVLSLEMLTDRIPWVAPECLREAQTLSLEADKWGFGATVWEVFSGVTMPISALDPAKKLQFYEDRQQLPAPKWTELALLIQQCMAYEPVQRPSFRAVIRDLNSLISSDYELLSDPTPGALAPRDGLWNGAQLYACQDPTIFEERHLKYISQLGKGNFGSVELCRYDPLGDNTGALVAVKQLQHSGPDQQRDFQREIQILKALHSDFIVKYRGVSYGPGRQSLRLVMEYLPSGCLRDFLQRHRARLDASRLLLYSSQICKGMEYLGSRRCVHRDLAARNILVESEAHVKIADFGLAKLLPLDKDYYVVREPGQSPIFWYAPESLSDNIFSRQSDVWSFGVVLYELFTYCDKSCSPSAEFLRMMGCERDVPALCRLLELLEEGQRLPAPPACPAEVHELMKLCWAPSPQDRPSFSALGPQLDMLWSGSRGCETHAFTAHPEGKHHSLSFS
Description: as §3, §1, §2

TYK2, sequence (P29597 whole entry): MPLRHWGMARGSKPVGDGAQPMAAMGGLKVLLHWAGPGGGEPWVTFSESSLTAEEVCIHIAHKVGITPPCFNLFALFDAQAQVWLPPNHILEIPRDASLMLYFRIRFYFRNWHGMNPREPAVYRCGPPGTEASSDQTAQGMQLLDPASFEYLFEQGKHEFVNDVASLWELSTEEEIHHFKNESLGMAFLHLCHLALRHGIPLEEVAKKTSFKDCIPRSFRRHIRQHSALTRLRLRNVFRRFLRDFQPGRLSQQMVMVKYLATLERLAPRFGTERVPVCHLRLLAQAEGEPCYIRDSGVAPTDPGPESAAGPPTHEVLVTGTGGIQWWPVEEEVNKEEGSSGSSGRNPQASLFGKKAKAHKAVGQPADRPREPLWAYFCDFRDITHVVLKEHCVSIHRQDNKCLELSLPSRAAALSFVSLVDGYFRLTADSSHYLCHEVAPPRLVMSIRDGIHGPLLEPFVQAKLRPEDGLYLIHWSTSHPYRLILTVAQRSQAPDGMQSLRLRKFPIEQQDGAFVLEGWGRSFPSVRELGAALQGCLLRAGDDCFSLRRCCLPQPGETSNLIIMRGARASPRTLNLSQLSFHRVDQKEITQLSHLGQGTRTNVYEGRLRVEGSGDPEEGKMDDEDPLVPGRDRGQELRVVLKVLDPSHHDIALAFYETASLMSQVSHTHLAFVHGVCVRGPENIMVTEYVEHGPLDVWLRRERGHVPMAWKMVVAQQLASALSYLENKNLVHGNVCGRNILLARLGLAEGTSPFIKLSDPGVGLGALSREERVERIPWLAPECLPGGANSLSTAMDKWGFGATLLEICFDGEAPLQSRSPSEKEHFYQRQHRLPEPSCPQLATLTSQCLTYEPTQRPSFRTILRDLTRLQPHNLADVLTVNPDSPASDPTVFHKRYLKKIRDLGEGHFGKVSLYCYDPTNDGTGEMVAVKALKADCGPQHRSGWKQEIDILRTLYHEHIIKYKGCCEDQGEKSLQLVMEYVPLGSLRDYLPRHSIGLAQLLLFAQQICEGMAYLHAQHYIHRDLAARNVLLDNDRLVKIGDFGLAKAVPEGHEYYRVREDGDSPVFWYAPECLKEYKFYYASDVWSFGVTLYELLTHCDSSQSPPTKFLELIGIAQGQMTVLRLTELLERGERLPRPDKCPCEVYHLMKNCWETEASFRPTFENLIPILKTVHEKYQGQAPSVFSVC

Row | Structure (SMILES) | IC50 (TYK2) [nM] | IC50 (JAK2) [nM] | IC50 (JAK1) [nM] | IC50 (JAK3) [nM]
1 | Cc1cnc(Nc2ccc(OCCN(C)C)cc2)nc1-c1cnn(CC2(CF)CC2)c1 [(C)CCOC1═CC═C(NC2═NC] | < 100 | < 10 | < 100 | < 100
2 | Cc1cnc(Nc2ccc(N3CCOCC3)cc2)nc1-c1cnn(CC2(C#N)CC2)c1 [C(C1═C(N═C(NC2═CC═C(C═C2)N3CCOCC3)] | < 10 | < 10 | < 100 | < 10
3 | Cc1cnc(NC2CCOCC2)nc1-c1cnn(CCC#N)c1 [CC1═C(N═C(NC2CCOCC2)N═C1)C3═C[N]] | > 50000 | < 100000 | < 100000 | > 50000
4 | Cc1cnc(Nc2cccc3c2CNC3=O)nc1-c1cnn(CC2(Cl)CC2)c1 [CC1═C(N═C(NC2═C3CNC] | < 100000 | < 100 | < 100000 | < 1000
5 | Cc1cnc(Nc2ccc(N3CC4(COC4)C3)cc2)nc1-c1cnn(CC2(CF)CC2)c1 [CC1═C(N═C(NC2═CC(═C(C═C2)N3CC4] | < 10 | < 10 | < 100 | < 10
6 | Cc1cnc(Nc2cccc(CCO)c2)nc1-c1cnn(CC2(CF)CC2)c1 [CC1═C(N═C(NC2═CC(═CC═C2)CCO)N═C1)C3═C[N]] | < 10 | < 10 | < 10 | < 10
7 | Cc1cnc(Nc2cccc(C(N)=O)c2)nc1-c1cnn(CC2(CF)CC2)c1 [CC1═C(N═C(NC2═CC(═CC═C2)C] | < 10 | < 10 | < 100 | < 100
8 | Cc1cnc(Nc2cc(CO)ns2)nc1-c1cnn(CC2(CF)CC2)c1 [CC1═C(N═C(NC2═CC(═NS2)CO)N═C1)C3═C[N]] | < 10 | < 10 | < 10 | < 10
9 | Cc1cnc(Nc2cc(COC(=O)CCN3CCOCC3)ns2)nc1-c1cnn(CC2(CF)CC2)c1 [CC1═C(N═C(NC2═CC(═NS2)COC] | < 10 | < 10 | < 100 | < 10
10 | Cc1cnc(Nc2cc(C(=O)O)ns2)nc1-c1cnn(CC2(CF)CC2)c1 [CC1═C(N═C(NC2═CC(═NS2)C] | < 100 | < 10 | < 100 | < 100
11 | Cc1cnc(Nc2ccc(S(C)(=O)=O)c(F)c2)nc1-c1cnn(CC2(Cl)CC2)c1 [CC1═C(N═C(NC2═CC═C(C(═C2)F)[S]] | < 10 | < 10 | < 100 | < 100
12 | Cc1cnc(Nc2ccc(CN3CCOCC3)cc2)nc1 [CC1═C(N═C(NC2═CC═C(CN3CCOCC3)C═C2)N═C1)] | < 100 | < 10 | < 100 | < 10
13 | Cc1cnc(Nc2ccc(CNC(=O)OC(C)(C)C)cc2)nc1-c1cnn(CC2(CF)CC2)c1 [CC1═C(N═C(NC2═CC═C(CNC(═O)OC] | < 100 | < 10 | < 100 | < 100
14 | Cc1cnc(Nc2ccc(CO)c(CO)c2)nc1-c1cnn(CC2(CF)CC2)c1 [CC1═C(N═C(NC2═CC═C(CO)C] | < 10 | < 10 | < 100 | < 100
15 | Cc1cnc(Nc2cccc(C(N)=O)c2)nc1-c1cnn(CC2(CF)CC2)c1 [CC1═C(N═C(NC2═CC═CC(═C2)C] | – | < 10 | – | < 100
16 | Cc1cnc(Nc2ccns2)nc1-c1cnn(CC2(CF)CC2)c1 [CC1═C(N═C(NC2═CC═NS2)N═C1)C3═C[N]] | – | < 10 | – | –
17 | Cc1cnc(NCCN2CCOCC2)nc1-c1cnn(CCC#N)c1 [CC1═C(N═C(NCCN2CCOCC2)N═C1)C3═C[N]] | – | < 100000 | < 100000 | > 50000
18 | Cc1ccc(S(=O)(=O)Nc2ncc(Cl)c(-c3cnn(CCC#N)c3)n2)cc1 [CC1═CC═C(C═C1)[S](═O)(═O)NC2═NC] | < 100000 | < 100000 | – | –
19 | Cc1cnc(Nc2cccc3c2CN(C)C3)nc1-c1cnn(CC2(Cl)CC2)c1 [CN1CC2═CC═CC(═C2C1)NC3═NC(═C] | – | < 1000 | < 100000 | < 100000
20 | N#CCCn1cc(-c2nc(N(C(=O)c3ccccc3)C(=O)c3ccccc3)ncc2Cl)cn1 [ClC1═C(N═C(N═C1)N(C(═O)C2═CC═CC═C2)C] | – | < 100000 | – | –
